How the values were obtained:
[1] = molecular target: T1, H^+ /K^+ ATPase (Sus scrofa, UniProt P19156); test: H^+ /K^+ ATPase Inhibitory Activity Assay; assay type: biochemical; conditions: pig stomach enzyme, 37° C., pH 6.2; for inhibition at 10 µg/mL: 10 μg/ml
T1 construct: prepared from the stomach of pig; from tissue; host or cells: pig stomach
Procedure: H^+ /K^+ ATPase Inhibitory Activity Assay
The inhibitory activity was determined in the following manner using H^+ /K^+ ATPase prepared from the stomach of pig.
H^+ /K^+ ATPase dilute solution (100 μl, 50 μg as protein) was added to PIPES-tris (pH 6.2) buffer solution (440 μl) containing 4 mM magnesium chloride and 20 mM potassium chloride. Further, 0.1% ethanol solution of nigericin (5 μl) was added. To the solution was added dimethyl sulfoxide (5 μl) and the mixture was incubated at 37° C. for 30 minutes. Then 10 mM PIPES-tris buffer solution (450 μl) containing 4 mM ATP disodium was added to initiate the reaction. 30 minutes later, 50% trichloroacetic acid (1 μl) was added to cease the reaction. The amount of phosphorus released in this reaction was determined by a color development determination at 800 nm according to D. Lebel, G. Poirier et al. method (Anal. Biochem. 85, 86-89, 1978), at which the reading of the absorbance is taken as C1. On the other hand, a similar determination was carried out in the absence of potassium chloride, at which the reading of the absorbance is taken as C2. The inhibitory activity was determined by a similar procedure as in the above reaction, but adding 5 μl of a dimethyl sulfoxide solution containing 1 to 20 mg/ml of the inhibiting substance (test compound), instead of dimethyl sulfoxide. In that case, the readings of the absorbance in the presence and absence of potassium chloride are taken as T1 and T2, respectively.
% Inhibition (I) of the inhibiting substance (test compound) is calculated by the following equation.

[2] = background statement; cited from earlier work

T1 sequence (P19156 2-1034 limits assumed): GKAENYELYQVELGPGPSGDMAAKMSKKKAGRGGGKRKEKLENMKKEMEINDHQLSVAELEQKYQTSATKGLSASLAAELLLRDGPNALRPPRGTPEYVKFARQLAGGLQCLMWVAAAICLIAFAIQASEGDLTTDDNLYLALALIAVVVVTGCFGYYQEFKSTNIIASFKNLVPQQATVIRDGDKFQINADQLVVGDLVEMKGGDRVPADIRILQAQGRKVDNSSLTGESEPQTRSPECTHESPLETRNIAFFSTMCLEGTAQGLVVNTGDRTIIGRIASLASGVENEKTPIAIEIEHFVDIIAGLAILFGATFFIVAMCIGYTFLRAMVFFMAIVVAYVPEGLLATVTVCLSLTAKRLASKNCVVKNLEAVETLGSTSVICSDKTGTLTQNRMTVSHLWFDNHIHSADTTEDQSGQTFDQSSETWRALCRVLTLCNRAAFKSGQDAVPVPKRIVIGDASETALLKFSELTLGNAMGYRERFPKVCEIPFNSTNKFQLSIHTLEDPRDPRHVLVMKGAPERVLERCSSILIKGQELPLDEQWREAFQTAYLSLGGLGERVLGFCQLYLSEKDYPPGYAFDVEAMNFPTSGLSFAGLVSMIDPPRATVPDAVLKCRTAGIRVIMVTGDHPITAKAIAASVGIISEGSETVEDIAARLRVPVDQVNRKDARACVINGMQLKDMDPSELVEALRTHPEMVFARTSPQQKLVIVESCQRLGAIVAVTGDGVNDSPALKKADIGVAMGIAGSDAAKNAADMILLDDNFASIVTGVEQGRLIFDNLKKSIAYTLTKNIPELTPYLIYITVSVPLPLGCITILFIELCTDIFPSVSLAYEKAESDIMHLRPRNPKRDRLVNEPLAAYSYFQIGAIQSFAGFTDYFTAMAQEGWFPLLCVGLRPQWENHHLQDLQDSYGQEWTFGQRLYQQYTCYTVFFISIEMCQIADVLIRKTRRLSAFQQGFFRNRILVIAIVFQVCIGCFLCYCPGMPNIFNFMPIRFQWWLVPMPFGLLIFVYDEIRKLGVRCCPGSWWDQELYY
T1 sequence (P18434 whole entry partner): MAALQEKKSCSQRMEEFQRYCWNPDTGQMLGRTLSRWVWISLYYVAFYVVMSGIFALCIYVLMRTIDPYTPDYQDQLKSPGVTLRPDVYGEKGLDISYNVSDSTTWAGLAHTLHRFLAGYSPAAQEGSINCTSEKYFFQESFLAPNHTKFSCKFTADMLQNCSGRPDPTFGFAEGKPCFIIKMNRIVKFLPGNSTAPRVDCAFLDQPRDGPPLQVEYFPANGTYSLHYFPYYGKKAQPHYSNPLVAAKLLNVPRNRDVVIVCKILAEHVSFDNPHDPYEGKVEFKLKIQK

Row | inhibition at 10 µg/mL [1] [%] | SMILES | also measured
1 | 54.9 | CN1CC[C@H]2c3cc(C4CCCN(C(=O)OCc5ccccc5)CCc5c4[nH]c4ccccc54)ccc3N(C)[C@H]2C1 (stereo partly drawn) [Example 1, 4a,9a-cis-6-(3-Benzyloxycarbonyl-1,2,4,5,6,7-hexahydro-3H-azonino[5,4-b]indole-7-yl)-2,9-dimethyl-1,2,3,4,4a,9a-hexahydro-pyrido[3,4-b]indole] | –
2 | – | CCOC(=O)N1CCCCC(c2ccc3c(c2)C2CCN(CC)CC2N3CC)c2[nH]c3ccccc3c2CC1 (stereo not shown) [Example 4, 6-(3-Ethoxycarbonyl-1,2,3,4,5,6,7,8-octahydro-azecino[5,4-b]indole-8-yl)-2,9-diethyl-1,2,3,4,4a,9a-hexahydropyrido[3,4-b]indole] | inhibition at 20 µg/mL ([1]; 20 μg/ml): 84%
3 | – | CCN1CCC2c3cc(C4Cc5ccccc5CN(C(=O)OCc5ccccc5)CCc5c4[nH]c4ccccc54)ccc3N(CC)C2C1 (stereo not shown) [Example 10, 6-(13-Benzyloxycarbonyl-6,7,12,13,14,15-hexahydrobenzo[h]azecino[5,4-b]indole-6-yl)-2,9-diethyl-1,2,3,4,4a,9a-hexahydro-pyrido[3,4-b]indole] | inhibition at 5 µg/mL ([1]; 5 μg/ml): 98.4%
4 | 97.5 | CCN1CCC2c3cc(C4CCCN(C(=O)OCc5ccccc5)CCc5c4[nH]c4ccccc54)ccc3N(CC)C2C1 (stereo not shown) [Example 11, 6-(3-Benzyloxycarbonyl-1,2,4,5,6,7-hexahydro-3H-azonino[5,4-b]indole-7-yl)-2,9-diethyl-1,2,3,4,4a,9a-hexahydropyrido[3,4-b]indole] | –
5 | 92.5 | CCN1CCC2c3cc(C(C)c4[nH]c5ccccc5c4CCN(Cc4ccccc4)C(=O)OCc4ccccc4)ccc3N(CC)C2C1 (stereo not shown) [Example 19, 6-(1-(3-(2-Benzyl(benzyloxycarbonyl)aminoethyl)-indole-2-yl)ethyl)-2,9-diethyl-1,2,3,4,4a,9a-hexahydro-pyrido[3,4-b]indole] | –
6 | 80.8 | CCN1CCC2c3cc(C(O)c4c(CCN(Cc5ccccc5)Cc5ccccc5)c5ccccc5n4S(=O)(=O)c4ccc(C)cc4)ccc3N(CC)C2C1 (stereo not shown) [Example 34, 2,9-Diethyl-6-(3-(2-dibenzylaminoethyl)-1-tosyl-indole-2-yl)hydroxymethyl-1,2,3,4,4a,9a-hexahydro-pyrido[3,4-b]indole] | –
7 | 78.8 | CCN1CCC2c3cc(C(O)c4c(CCOCc5ccccc5)c5ccccc5n4Cc4ccccc4)ccc3N(CC)C2C1 (stereo not shown) [Example 39, 2,9-Diethyl-6-(3-(2-benzyloxyethyl)-1-benzyl-indole-2-yl)hydroxymethyl-1,2,3,4,4a,9a-hexahydro-pyrido[3,4-b]indole] | –
8 | 24.4 | CCN1CCC2c3cc(C(O)c4c(CCc5ccccn5)c5ccccc5n4S(=O)(=O)c4ccc(C)cc4)ccc3N(CC)C2C1 (stereo not shown) [Example 40] | –
9 | 65.7 | CCN1CCC2c3cc(C(OCc4ccccc4)c4c(CCN(Cc5ccccc5)Cc5ccccc5)c5ccccc5n4C)ccc3N(CC)C2C1 (stereo not shown) [Example 45, 6-(Benzyloxy-(3-(2-(N,N-dibenzylamino)ethyl)-1-methylindole-2-yl)-methyl)-2,9-diethyl-1,2,3,4,4a,9a-hexahydropyrido[3,4-b]indole] | –
10 | – | COc1ccc2[nH]c([S+]([O-])Cc3ncc(C)c(OC)c3C)nc2c1 (stereo not shown) [Omeprazole] | occurrence of side effects [2]: occurrence of carcinoid
